# From patent US20110212954A1, “ALPHA-LIPOIC ACID DERIVATIVES AND THEIR USE IN DRUG PREPARATION” (priority 2008, published 2011)
# Legend:
# [1] = in man, cited from earlier work
# diabetic rats = details: diabetes type II models, high doses of α-LA (30 mg/kg in rats); cited from earlier work
# [2] = tested on: human hepatocarcinoma cells (HepG2 cells); assay: Evaluation of cell viability (ATPlite luminometric assay) and cell proliferation; assay type: cell-based; details: 1 mM
# Experimental: Dose-dependent concentration studies of the synthesized compounds were carried out and compared with the effects of alpha-lipoic acid, defined as reference standard, on human hepatocarcinoma cells (HepG2 cells) with the aim of evaluating their effects on cell viability.
# Analysis by optical microscope enabled any morphological changes and accumulation of lipid vesicles to be determined as well as to evaluate cell proliferation or arrest.
# A luminometric assay (ATPlite, Perkin Elmer), based on the production of light caused by a reaction with the intracellular ATP of viable cells, enabled the compounds to be classified on the basis of their viability index. In this respect, the signal detected by the luminometer is proportional to the number of viable cells. […]
# HepG2 cells [3] = assay: Variation in NADPH levels (total NADPH/NADP ratio), spectrophotometric kit; assay type: cell-based, human; details: HepG2 cells, 5, 10, 100 and 500 μM, 72 hours
# Text: (§1) Although it is known that under hyperglycemic conditions α-LA induces AMPK activation in hepatic cells, the molecular mechanisms responsible for this biochemical process are not yet known. As envisaged in the description, the inventors of the present invention have advanced the hypothesis that AMPK activation by α-LA is the result of changes in the amount of NADH and NADHP present in cells, due to the interference of α-LA and/or its analogous derivatives in the oxidation-reduction processes. To verify this hypothesis, use was made of commercial kits (by Valter Occhiena) able to analyze the variations in the cellular amounts of NAD(P)H relative to total NAD(P), in the presence of increasing concentrations of the compounds under analysis (total NAD=NADH+NAD^+; total NADP=NADPH+NADP^+).
# HepG2 cells [4] = assay: Variation in NADH levels (total NADH/NAD ratio), spectrophotometric kit; assay type: cell-based, human; details: 100 and 500 μm, 72 hours
# Text: as §1
structure (smiles),measurement,setting,value
"O=C(O)CCCC[C@@H]1CCSS1 (racemic) [α-LA, 1,2-dithiolane-3-pentanoic acid]",bioavailability after oral administration,[1]; oral,less than 30%
same,plasma half life (t1/2),[1],28 min
same,glycemia in diabetic rats,diabetic rats,reduces glycemia
"O=C(O)CCCC[C@@H]1CCSS1 [(R)-α-LA, (R)-alpha-lipoic acid, reference compound]",confluence reached by HepG2 cells (arrest of cell proliferation),[2],60-70%
same,effect on NADPH levels (FIG. 11),HepG2 cells [3],"influenced NADPH levels, in a dose dependent manner"
same,amount of NADH at high concentrations (FIG. 10),HepG2 cells [4],decrease in NADH levels
